The test deals with P388 leukemia ip, CD2F1 mice, survival T/C. The experiment in a line: NCI In Vivo Anticancer Drug Screen. Data for tumor model P388 Leukemia (intraperitoneal) in CD2F1 (CDF1) mice. The settings on record: endpoint: median survival time, higher = longer survival. In a few lines: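 Mice carrying the transplanted tumor received test compound or vehicle. Survival was recorded in each group, and the value is the treated-group measurement divided by that of the vehicle-treated control group.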

[1] abbreviates: dose: 50.0 mg/kg/injection, schedule: Q01DX005 (ip), vehicle: Klucel (hydroxypropylcellulose) (HPC).
The mark [2] stands for this setting: dose: 100.0 mg/kg/injection, schedule: Q01DX005 (ip), vehicle: Klucel (hydroxypropylcellulose) (HPC).
Setting [3] is: dose: 25.0 mg/kg/injection, schedule: Q01DX005 (ip), vehicle: Klucel (hydroxypropylcellulose) (HPC).
Setting [4] is: dose: 50.0 mg/kg/injection, schedule: Q01DX005 (ip), vehicle: saline with Tween-80.
The mark [5] stands for this setting: dose: 100.0 mg/kg/injection, schedule: Q01DX005 (ip), vehicle: saline with Tween-80.
[6] abbreviates: dose: 200.0 mg/kg/injection, schedule: Q01DX005 (ip), vehicle: saline with Tween-80.
[7] abbreviates: dose: 60.0 mg/kg/injection, schedule: Q01DX005 (ip), vehicle: saline.
Where [8] appears, read: dose: 120.0 mg/kg/injection, schedule: Q01DX005 (ip), vehicle: saline.
Where [9] appears, read: dose: 240.0 mg/kg/injection, schedule: Q01DX005 (ip), vehicle: saline.
The mark [10] stands for this setting: dose: 100.0 mg/kg/injection, schedule: Q04DX003 (ip), vehicle: saline.
The mark [11] stands for this setting: dose: 200.0 mg/kg/injection, schedule: Q04DX003 (ip), vehicle: saline.
Where [12] appears, read: dose: 400.0 mg/kg/injection, schedule: Q04DX003 (ip), vehicle: saline.
[13] abbreviates: dose: 50.0 mg/kg/injection, schedule: Q04DX003 (ip), vehicle: saline.

SMILES strings stand for the structures. Where “and” joins values, the source holds several entries; their conditions need not be identical. Identical values can stand only once. Inconclusive results and toxic doses are left out.

Consider `COc1ccc(Cc2cc3c(cc2OC)OCO3)cc1`, for which the T/C is 99 % of control (dose: 2.5 mg/kg/injection, schedule: Q01DX009 (ip), vehicle: saline with Tween-80); 99 % of control (dose: 5.0 mg/kg/injection, schedule: Q01DX009 (ip), vehicle: saline with Tween-80); 99 % of control (dose: 10.0 mg/kg/injection, schedule: Q01DX009 (ip), vehicle: saline with Tween-80); 102 % of control (dose: 15.0 mg/kg/injection, schedule: Q01DX005 (ip), vehicle: saline with Tween-80); 102 % of control (dose: 31.0 mg/kg/injection, schedule: Q01DX005 (ip), vehicle: saline with Tween-80); 109 % of control (dose: 62.5 mg/kg/injection, schedule: Q01DX005 (ip), vehicle: saline with Tween-80). Besides, the T/C (dose: 125.0 mg/kg/injection, schedule: Q01DX005 (ip), vehicle: saline with Tween-80) is 103 % of control and the T/C (dose: 250.0 mg/kg/injection, schedule: Q01DX005 (ip), vehicle: saline with Tween-80) was 103 % of control.
`c1ccc(C2=N[C@@H](N3CCCCC3)[C@H](N3CCCCC3)N2c2ccccc2)cc1`: the T/C by setting is: under setting [1], 105 % of control; under setting [2], 100 % of control; (dose: 200.0 mg/kg/injection, schedule: Q01DX005 (ip), vehicle: Klucel (hydroxypropylcellulose) (HPC)) 98 % of control.
With `O=P(N1CCCCCC1)(N1CC1)N1CC1`, the T/C runs as follows: (dose: 0.47 mg/kg/injection, schedule: Q01DX009 (ip), vehicle: saline) 102 % of control; (dose: 0.94 mg/kg/injection, schedule: Q01DX009 (ip), vehicle: saline) 108 % of control; (dose: 0.94 mg/kg/injection, schedule: Q04DX003 (ip), vehicle: saline) 117 % of control; (dose: 1.87 mg/kg/injection, schedule: Q01DX009 (ip), vehicle: saline) 118 % of control; (dose: 1.88 mg/kg/injection, schedule: Q01DX009 (ip), vehicle: saline) 118 % of control; (dose: 3.75 mg/kg/injection, schedule: Q04DX003 (ip), vehicle: saline) 161 % of control. Also, the T/C reads like this: (dose: 7.5 mg/kg/injection, schedule: Q04DX003 (ip), vehicle: saline) 227 % of control; (dose: 15.0 mg/kg/injection, schedule: Q04DX003 (ip), vehicle: saline) 165 % of control; (dose: 22.0 mg/kg/injection, schedule: Q04DX003 (ip), vehicle: saline) 190 % of control; (dose: 30.0 mg/kg/injection, schedule: Q04DX003 (ip), vehicle: saline) 200 % of control; (dose: 33.0 mg/kg/injection, schedule: Q04DX003 (ip), vehicle: saline) 259 % of control.
Consider `CN(C)C(=O)Sc1nnc(C(C)(C)C)o1`, for which the T/C under setting [3] was 100 % of control, the T/C under setting [1] is 106 % of control and the T/C under setting [2] was 106 % of control.
For `C=C1C=CN(C(C)=O)C(OC(C)=O)C1SC(C)(C)C` (stereo not drawn), the T/C (dose: 60.0 mg/kg/injection, schedule: Q01DX005 (ip), vehicle: saline with Tween-80) is 97 % of control; the T/C (dose: 120.0 mg/kg/injection, schedule: Q01DX005 (ip), vehicle: saline with Tween-80) was 95 % of control; the T/C (dose: 240.0 mg/kg/injection, schedule: Q01DX005 (ip), vehicle: saline with Tween-80) is 97 % of control.
For the compound `Cc1ccc2nc3c(nc2c1)n(-c1ccccc1)c(=O)n3-c1cccc(Cl)c1`, the T/C runs as follows: under setting [4], 90 % of control; under setting [5], 100 % of control; under setting [6], 101 % of control.
For `CN(C)C(=O)N1OC2CCC1CC2`, the T/C runs as follows: under setting [7], 100 % of control; under setting [8], 100 % of control; under setting [9], 100 % of control.
For `O=c1[nH]nc(-c2ccc3c(c2)OCO3)o1`, the T/C by setting is: (dose: 32.5 mg/kg/injection, schedule: Q01DX009 (ip), vehicle: Klucel (hydroxypropylcellulose) (HPC)) 105 % of control; (dose: 65.0 mg/kg/injection, schedule: Q01DX009 (ip), vehicle: Klucel (hydroxypropylcellulose) (HPC)) 95 % of control; (dose: 130.0 mg/kg/injection, schedule: Q01DX009 (ip), vehicle: Klucel (hydroxypropylcellulose) (HPC)) 95 % of control.
Turning to `CCOC(=O)CC1CCCN1Sc1ccc([N+](=O)[O-])cc1[N+](=O)[O-]` (stereo not drawn), the T/C reads like this: under setting [4], 100 % of control; under setting [5], 101 % of control; under setting [6], 100 % of control.
On to `O=C1C=C/C(=C\c2cccc(Cl)c2)O1`, for which the T/C (dose: 100.0 mg/kg/injection, schedule: Q01DX002 (ip), vehicle: Klucel (hydroxypropylcellulose) (HPC)) is 103 % of control; the T/C (dose: 200.0 mg/kg/injection, schedule: Q01DX002 (ip), vehicle: Klucel (hydroxypropylcellulose) (HPC)) is 107 % of control; the T/C (dose: 400.0 mg/kg/injection, schedule: Q01DX002 (ip), vehicle: Klucel (hydroxypropylcellulose) (HPC)) was 103 % of control.
`COc1ccc(/C=C2\C(=O)N(Cc3ccco3)SC2=S)c(OC)c1OC`: the T/C was 90 % of control (dose: 50.0 mg/kg/injection, schedule: Q01DX009 (ip), vehicle: saline with Tween-80); 90 % of control (dose: 100.0 mg/kg/injection, schedule: Q01DX009 (ip), vehicle: saline with Tween-80); 106 % of control (dose: 200.0 mg/kg/injection, schedule: Q01DX009 (ip), vehicle: saline with Tween-80).
Consider `O=S(=O)(F)c1ncnc2nc[nH]c12`, for which the T/C was 93 % of control under setting [4], 103 % of control under setting [5] and 112 % of control under setting [6].
For `O=C(O)CCCOc1ccc(Cl)cc1Cl`, the T/C reads like this: under setting [10], 109 % of control; under setting [11], 100 % of control; under setting [12], 100 % of control.
For `CC1OC(Nc2ncnc3nc[nH]c23)C(O)C(O)C1NC(=O)CNC(=O)CCCCCCCCC/C=C\C(C)(C)C` (stereo not drawn), the T/C was 113 % of control (dose: 0.25 mg/kg/injection, schedule: Q01DX009 (ip), vehicle: distilled water + Tween-80); 113 % of control and 123 % of control (dose: 0.5 mg/kg/injection, schedule: Q01DX009 (ip), vehicle: distilled water + Tween-80); 100 % of control (dose: 4.0 mg/kg/injection, schedule: Q01DX009 (ip), vehicle: distilled water + Tween-80).
As for `O=C(NCCO)Nc1ccc2c(c1)OCCOCCOCCOCCO2`, the T/C by setting is: (dose: 30.0 mg/kg/injection, schedule: Q01DX005 (ip), vehicle: saline) 98 % of control; under setting [7], 101 % of control; under setting [8], 99 % of control; under setting [9], 99 % of control.
As for `CCCNc1nc(C)nc2[nH]cc(C)c12`, the T/C under setting [1] is 100 % of control and the T/C under setting [2] was 102 % of control.
`CS(=O)(=O)Oc1ccc2c(c1)CCC2`: the T/C is, setting by setting: under setting [13], 99 % of control; under setting [10], 101 % of control; under setting [11], 108 % of control; under setting [12], 102 % of control.
For the compound `CC1=CC=C(C(=O)C(Br)C(Br)c2ccccc2)C1` (stereo not drawn), the T/C by setting is: (dose: 6.25 mg/kg/injection, schedule: Q01DX009 (ip), vehicle: Klucel (hydroxypropylcellulose) (HPC)) 92 % of control; (dose: 12.5 mg/kg/injection, schedule: Q01DX009 (ip), vehicle: Klucel (hydroxypropylcellulose) (HPC)) 92 % of control; (dose: 25.0 mg/kg/injection, schedule: Q01DX009 (ip), vehicle: Klucel (hydroxypropylcellulose) (HPC)) 89 % of control.
In the case of `CCCCC1SC2=NCCN2C1(O)c1ccc(Cl)cc1` (stereo not drawn), the T/C is 113 % of control under setting [1] and 109 % of control under setting [2].
In the case of `NC(=O)C1=CC2C3C=CC2(O)C(=O)OC3O1` (stereo not drawn), the T/C reads like this: (dose: 7.5 mg/kg/injection, schedule: Q01DX005 (ip), vehicle: Klucel (hydroxypropylcellulose) (HPC)) 114 % of control and 119 % of control; (dose: 30.0 mg/kg/injection, schedule: Q01DX005 (ip), vehicle: Klucel (hydroxypropylcellulose) (HPC)) 158 % of control.
In the case of `O=c1[nH]nc(SCc2ccc(Cl)cc2Cl)c(=O)[nH]1`, the T/C is, setting by setting: (dose: 6.25 mg/kg/injection, schedule: Q01DX005 (ip), vehicle: Klucel (hydroxypropylcellulose) (HPC)) 100 % of control; (dose: 12.5 mg/kg/injection, schedule: Q01DX005 (ip), vehicle: Klucel (hydroxypropylcellulose) (HPC)) 94 % of control; under setting [3], 86 % of control.
For `S=C(S)N1CCOCC1`, the T/C runs as follows: under setting [13], 100 % of control; under setting [10], 100 % of control; under setting [11], 100 % of control.
